Data taken from ChEMBL document CHEMBL1201862, “PubChem BioAssay data set” (2004).
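Exposure lasted 48 hours, with cells grown in 96-well plates and compounds tested at five concentrations. GI50 marks 50% less growth.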 Activity calls are given as the source filed them. No stated cut-off is given here; in the data, active = GI50 up to about 1.1 µM and inactive = higher.

Experiments:
Test in all cases: NCI tumour cell line growth inhibition, 48 h
SK-OV-3 = tested on: SK-OV-3
HOP-62 = tested on: HOP-62
RXF 393 = tested on: RXF 393
NCI-H460 = tested on: NCI-H460
OVCAR-3 = tested on: OVCAR-3
SN12C = tested on: SN12C
DU-145 = tested on: DU-145
MCF7 = tested on: MCF7
A549 = tested on: A549
SW-620 = tested on: SW-620
HCC 2998 = tested on: HCC 2998
ACHN = tested on: ACHN
UO-31 = tested on: UO-31
MDA-MB-231 = tested on: MDA-MB-231
SR = tested on: SR
CAKI-1 = tested on: CAKI-1
786-0 = tested on: 786-0
Malme-3M = tested on: Malme-3M
OVCAR-8 = tested on: OVCAR-8
MDA-N = tested on: MDA-N

Row | Compound | GI50 (SK-OV-3) | GI50 (HOP-62) | GI50 (RXF 393) | GI50 (NCI-H460) | GI50 (OVCAR-3) | GI50 (SN12C) | GI50 (DU-145) | GI50 (MCF7) | GI50 (A549) | GI50 (SW-620) | GI50 (HCC 2998) | GI50 (ACHN) | GI50 (UO-31) | GI50 (MDA-MB-231) | GI50 (SR) | GI50 (CAKI-1) | GI50 (786-0) | GI50 (Malme-3M) | GI50 (OVCAR-8) | GI50 (MDA-N)
1 | O=C1c2ccccc2/N=C(/c2cc3c(cc2Cl)Sc2nccn2S3(=O)=O)OS(=O)(=O)N1c1ccccc1 | 36.3 µM (inactive) | 21.7 µM (inactive) | 20.8 µM (inactive) | 29.8 µM (inactive) | 37 µM (inactive) | 32.1 µM (inactive) | 37.4 µM (inactive) | 24.6 µM (inactive) | 30.3 µM (inactive) | 24.9 µM (inactive) | 8.36 µM (inactive) | 25.8 µM (inactive) | 26 µM (inactive) | 22.7 µM (inactive) | 10.8 µM (inactive) | 35.7 µM (inactive) | 38.4 µM (inactive) | 73.8 µM (inactive) | 17.4 µM (inactive) | 
2 | CC(C)(C)OC(=O)N1N=CCC1c1ccccc1 (stereo not given) | > 100 µM (inactive) | > 100 µM (inactive) | > 100 µM (inactive) | > 100 µM (inactive) | > 100 µM (inactive) | > 100 µM (inactive) | > 100 µM (inactive) | > 100 µM (inactive) | > 100 µM (inactive) | > 100 µM (inactive) | > 100 µM (inactive) | > 100 µM (inactive) | > 100 µM (inactive) |  | > 100 µM (inactive) | > 100 µM (inactive) | > 100 µM (inactive) |  | > 100 µM (inactive) | 
3 | COc1ccc(C(=O)Nc2ccc(O)c(=O)cc2)cc1 |  | 80.9 µM (inactive) | 13.6 µM (inactive) | 15.3 µM (inactive) | 27.6 µM (inactive) | 36.5 µM (inactive) | 25.6 µM (inactive) | 21.5 µM (inactive) | 43.9 µM (inactive) | 30.7 µM (inactive) | 39.9 µM (inactive) | 23.7 µM (inactive) | 20.9 µM (inactive) | 42.3 µM (inactive) | 17.5 µM (inactive) | 36.9 µM (inactive) | 51.1 µM (inactive) | 43.9 µM (inactive) | 30.6 µM (inactive) | 
4 | CC1NC(/C(=C/c2ccccc2O)NC(=O)c2ccccc2)OC1=O (stereo not given) | 48.2 µM (inactive) | 16.1 µM (inactive) |  |  | > 50 µM (inactive) | > 50 µM (inactive) |  | 1.47 µM (inactive) | > 50 µM (inactive) | > 50 µM (inactive) | > 50 µM (inactive) | 22.4 µM (inactive) | > 50 µM (inactive) | > 50 µM (inactive) | 2.52 µM (inactive) | > 50 µM (inactive) | 16.3 µM (inactive) | 9.31 µM (inactive) | > 50 µM (inactive) | 4.05 µM (inactive)
5 | Cn1c2ccccc2n2c3ccccc3c3nnc(N)c-3c12 | > 95.1 µM (inactive) | 9.2 µM (inactive) | 22.7 µM (inactive) | > 60.4 µM (inactive) | 28.2 µM (inactive) | 0.757 µM (active) | 33.7 µM (inactive) | 19.2 µM (inactive) | > 100 µM (inactive) | 57.8 µM (inactive) | 41.2 µM (inactive) | 91.2 µM (inactive) | > 100 µM (inactive) | 55 µM (inactive) | 26.7 µM (inactive) | 76.4 µM (inactive) | 0.847 µM (active) | 10.5 µM (inactive) | 8.18 µM (inactive) | 
6 | CCOc1ncnc2ccc(Cl)c(I)c12 | 36.4 µM (inactive) | > 100 µM (inactive) | 15 µM (inactive) | 80.7 µM (inactive) | > 100 µM (inactive) | 67.5 µM (inactive) |  |  | 75.7 µM (inactive) | > 100 µM (inactive) | > 100 µM (inactive) | 33.6 µM (inactive) | 27.7 µM (inactive) |  | 47.2 µM (inactive) | 22.6 µM (inactive) | 87.9 µM (inactive) | > 100 µM (inactive) | > 100 µM (inactive) | 
7 | O=C1Nc2ccccc2/C1=C1/Nc2ccccc2/C1=N/OCCO | 0.299 µM (active) | > 100 µM (inactive) | 5.85 µM (inactive) | 0.824 µM (active) | 1.51 µM (inactive) | 29 µM (inactive) | 0.713 µM (active) | 1.86 µM (inactive) | 1.52 µM (inactive) | 14 µM (inactive) | 24.8 µM (inactive) | 0.352 µM (active) | 0.363 µM (active) |  | 0.546 µM (active) | 0.175 µM (active) | 13 µM (inactive) | 5.53 µM (inactive) | > 100 µM (inactive) | 23 µM (inactive)
8 | COC(=O)C(C(=O)C(=O)NC1=C(Cl)C(=O)c2ccccc2C1=O)c1csc(-n2nc(-c3ccccc3)cc2-c2ccccc2)n1 (stereo not given) | > 100 µM (inactive) | > 100 µM (inactive) | 34.7 µM (inactive) | > 100 µM (inactive) | > 100 µM (inactive) | > 100 µM (inactive) |  |  | > 100 µM (inactive) | > 100 µM (inactive) | > 100 µM (inactive) | > 100 µM (inactive) | 6.08 µM (inactive) |  | > 100 µM (inactive) | > 100 µM (inactive) | > 100 µM (inactive) | 19.1 µM (inactive) | > 100 µM (inactive) | 
9 | CC(C)C/C=C/C1=NN(c2cccc(S(=O)(=O)O)c2)C2(C1)SCC(=O)N2c1nc2ccccc2s1 (stereo not given) |  |  | 98.4 µM (inactive) | 38 µM (inactive) |  | 31.9 µM (inactive) | 44.2 µM (inactive) | 30.5 µM (inactive) | 89.1 µM (inactive) | 96.6 µM (inactive) | > 100 µM (inactive) | 72.4 µM (inactive) | 50.1 µM (inactive) | 38.9 µM (inactive) | 25.2 µM (inactive) | 66.8 µM (inactive) | 21.3 µM (inactive) | 93.1 µM (inactive) | 66.2 µM (inactive) | 
10 | COc1ccc2nc(NC(=O)C(=O)CC(=O)c3ccc(Cl)cc3)sc2c1 | 34.7 µM (inactive) | > 100 µM (inactive) | 31.3 µM (inactive) | > 100 µM (inactive) | > 100 µM (inactive) | > 100 µM (inactive) |  |  | 67.1 µM (inactive) | > 100 µM (inactive) | 56.9 µM (inactive) | > 100 µM (inactive) | 69 µM (inactive) |  | > 100 µM (inactive) | 58.5 µM (inactive) | > 100 µM (inactive) | > 100 µM (inactive) | > 100 µM (inactive) | 
11 | O=C1CCSC(=S)N1c1ccc(Br)c(Cl)c1 | 37.6 µM (inactive) | 31.9 µM (inactive) | 20.1 µM (inactive) | 21.8 µM (inactive) | 37.6 µM (inactive) | 41.2 µM (inactive) | 43.8 µM (inactive) | 17.9 µM (inactive) | 35.3 µM (inactive) | 28.1 µM (inactive) |  | 21.6 µM (inactive) | 30.2 µM (inactive) | 29 µM (inactive) | 32 µM (inactive) | 29.6 µM (inactive) | 24.4 µM (inactive) | 22.9 µM (inactive) | 30.5 µM (inactive) | 
12 | CSc1ncc2c(n1)-c1ccccc1OC2NC(C)(C)C (stereo not given) | 91.2 µM (inactive) | > 100 µM (inactive) | 98.4 µM (inactive) | > 100 µM (inactive) | > 100 µM (inactive) | > 100 µM (inactive) | > 100 µM (inactive) | 36.5 µM (inactive) | > 100 µM (inactive) | > 100 µM (inactive) | 21.3 µM (inactive) | 92.9 µM (inactive) | 63.4 µM (inactive) | > 100 µM (inactive) | > 100 µM (inactive) | 35.7 µM (inactive) | > 100 µM (inactive) | > 100 µM (inactive) | > 100 µM (inactive) | 
13 | CC(C)(C)OC(=O)NCC(CNC(=O)OC(C)(C)C)C(N)=O | > 100 µM (inactive) | > 100 µM (inactive) | > 100 µM (inactive) | > 100 µM (inactive) | > 100 µM (inactive) | > 100 µM (inactive) | > 100 µM (inactive) | > 100 µM (inactive) | > 100 µM (inactive) | > 100 µM (inactive) | > 100 µM (inactive) | > 100 µM (inactive) | > 100 µM (inactive) | > 100 µM (inactive) | > 100 µM (inactive) | > 100 µM (inactive) | > 100 µM (inactive) | > 100 µM (inactive) | > 100 µM (inactive) | 
14 | CCCCCCCCCCCCOP(=O)(O)OP(=O)(O)OCC1OC(n2cc(C)c(=O)[nH]c2=O)CC1O (stereo not given) | > 100 µM (inactive) | > 100 µM (inactive) | > 100 µM (inactive) | > 100 µM (inactive) | > 100 µM (inactive) | > 100 µM (inactive) |  | > 100 µM (inactive) | > 100 µM (inactive) | > 100 µM (inactive) | > 100 µM (inactive) | > 100 µM (inactive) | > 100 µM (inactive) | > 100 µM (inactive) |  | > 100 µM (inactive) | > 100 µM (inactive) | > 100 µM (inactive) | > 100 µM (inactive) | > 100 µM (inactive)
15 | Nc1ncnc2c1nc(Cl)n2C1OC2COP(=O)(O)OC2C1O (stereo not given) | 3.01 µM (inactive) |  | 3.15 µM (inactive) | 4 µM (inactive) | 12.2 µM (inactive) | 12 µM (inactive) | 6.67 µM (inactive) | 3.49 µM (inactive) | 23.3 µM (inactive) | 3.47 µM (inactive) | 38.9 µM (inactive) | 4.99 µM (inactive) | 5.87 µM (inactive) |  | 3.55 µM (inactive) | 6.04 µM (inactive) | 5.04 µM (inactive) | 37 µM (inactive) | 3.9 µM (inactive) | 6.43 µM (inactive)
